Reference: ChEMBL document CHEMBL1147964, “Double mode of inhibition-inducing interactions of 1,4-naphthoquinone with urease: arylation versus oxidation of enzyme thiols” (Bioorg Med Chem, 2007)

Key:
[1] = target: Urease (Canavalia ensiformis) (UniProt P07374); assay: Reactivation of jack bean urease activity in presence of DTT after 40 mins
[2] = target: Urease (Canavalia ensiformis) (UniProt P07374); assay: Inhibition of jack bean urease assessed as residual activity at 30 uM
[3] = target: Urease (Canavalia ensiformis) (UniProt P07374); assay: Inhibition of jack bean urease assessed as residual activity at 50 uM
[4] = target: Urease (Canavalia ensiformis) (UniProt P07374); assay: Inhibition of jack bean urease assessed as residual activity at 85 uM

Chain of Urease (Canavalia ensiformis) (P07374 whole entry, looked up): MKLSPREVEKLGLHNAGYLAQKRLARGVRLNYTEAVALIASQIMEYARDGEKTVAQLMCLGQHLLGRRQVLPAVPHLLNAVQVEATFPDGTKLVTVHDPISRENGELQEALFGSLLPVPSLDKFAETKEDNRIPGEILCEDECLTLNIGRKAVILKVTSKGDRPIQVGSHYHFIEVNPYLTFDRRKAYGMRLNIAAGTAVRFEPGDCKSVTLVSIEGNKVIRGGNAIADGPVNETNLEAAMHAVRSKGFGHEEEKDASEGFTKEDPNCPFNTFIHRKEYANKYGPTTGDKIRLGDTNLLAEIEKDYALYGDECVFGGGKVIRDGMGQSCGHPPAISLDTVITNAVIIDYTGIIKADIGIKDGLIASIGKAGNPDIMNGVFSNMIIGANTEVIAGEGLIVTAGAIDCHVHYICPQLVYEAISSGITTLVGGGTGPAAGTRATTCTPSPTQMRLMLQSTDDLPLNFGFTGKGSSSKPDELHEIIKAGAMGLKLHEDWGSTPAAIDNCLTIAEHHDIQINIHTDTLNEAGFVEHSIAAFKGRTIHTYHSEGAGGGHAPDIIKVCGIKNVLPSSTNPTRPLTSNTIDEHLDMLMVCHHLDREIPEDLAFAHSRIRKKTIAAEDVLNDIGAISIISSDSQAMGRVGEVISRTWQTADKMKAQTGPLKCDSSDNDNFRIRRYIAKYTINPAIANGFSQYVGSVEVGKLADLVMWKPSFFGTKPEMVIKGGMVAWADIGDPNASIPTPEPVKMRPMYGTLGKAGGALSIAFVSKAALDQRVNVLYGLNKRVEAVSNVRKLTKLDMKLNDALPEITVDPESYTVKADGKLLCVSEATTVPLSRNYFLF

`O=C1C=CC(=O)c2ccccc21` gave an Activity [1] of 40%, an Activity [2] of 40% and an Activity [3] of 24%. For the same molecule, the Activity [4] was 7%.
